pIC50: −log10 of the molar value. Values after ≈ are worked out from the molar mass of the structure shown. Active and inactive are the calls of the source. The rule behind the calls is not given here.
Experiments:
Aspergillus niger = test: Antifungal activity against Aspergillus niger assessed as reduction in fungal cell growth incubated for 48 hrs by serial dilution method; type: functional
Escherichia coli = test: Antibacterial activity against Escherichia coli assessed as reduction in bacterial cell growth incubated for 24 hrs by filter paper assay; type: functional
[1] = test system: Colletotrichum orbiculare; test: Antifungal activity against Colletotrichum orbiculare assessed as reduction in fungal cell growth incubated for 48 hrs by serial dilution method; type: functional
[2] = test system: Fusarium oxysporum f. sp. vasinfectum; test: Antifungal activity against Fusarium oxysporum sp. vasinfectum assessed as reduction in fungal cell growth incubated for 48 hrs by serial dilution method; type: functional
Ralstonia solanacearum = test: Antibacterial activity against Ralstonia solanacearum assessed as reduction in bacterial cell growth incubated for 24 hrs by filter paper assay; type: functional
Aspergillus flavus = test: Antifungal activity against Aspergillus flavus assessed as reduction in fungal cell growth incubated for 48 hrs by serial dilution method; type: functional
Cytospora = test: Antifungal activity against Cytospora juglandis assessed as reduction in fungal cell growth incubated for 48 hrs by serial dilution method; type: functional
Verticillium dahliae = test: Antifungal activity against Verticillium dahliae assessed as reduction in fungal cell growth incubated for 48 hrs by serial dilution method; type: functional
Candida tropicalis = test: Antifungal activity against Candida tropicalis assessed as reduction in fungal cell growth incubated for 48 hrs by serial dilution method; type: functional
Bacillus cereus = test: Antibacterial activity against Bacillus cereus assessed as reduction in bacterial cell growth incubated for 24 hrs by filter paper assay; type: functional
Acetylcholinesterase = Acetylcholinesterase (Electrophorus electricus, UniProt O42275); test: Inhibition of electric eel AChE by Ellman's colorimetry
Cryptococcus neoformans = test: Antifungal activity against Cryptococcus neoformans assessed as reduction in fungal cell growth incubated for 48 hrs by serial dilution method; type: functional
Candida = test: Antifungal activity against […] assessed as reduction in fungal cell growth incubated for 48 hrs by serial dilution method; type: functional
Penicillium citrinum = test: Antifungal activity against Penicillium citrinum assessed as reduction in fungal cell growth incubated for 48 hrs by serial dilution method; type: functional
Staphylococcus aureus = test: Antibacterial activity against Staphylococcus aureus assessed as reduction in bacterial cell growth incubated for 24 hrs by filter paper assay; type: functional
Curvularia lunata = test: Antifungal activity against Curvularia lunata assessed as reduction in fungal cell growth incubated for 48 hrs by serial dilution method; type: functional
Fusarium oxysporum = test: Antifungal activity against Fusarium oxysporum assessed as reduction in fungal cell growth incubated for 48 hrs by serial dilution method; type: functional
Pseudomonas aeruginosa = test: Antibacterial activity against Pseudomonas aeruginosa assessed as reduction in bacterial cell growth incubated for 24 hrs by filter paper assay; type: functional

Chain of Acetylcholinesterase (O42275 whole entry): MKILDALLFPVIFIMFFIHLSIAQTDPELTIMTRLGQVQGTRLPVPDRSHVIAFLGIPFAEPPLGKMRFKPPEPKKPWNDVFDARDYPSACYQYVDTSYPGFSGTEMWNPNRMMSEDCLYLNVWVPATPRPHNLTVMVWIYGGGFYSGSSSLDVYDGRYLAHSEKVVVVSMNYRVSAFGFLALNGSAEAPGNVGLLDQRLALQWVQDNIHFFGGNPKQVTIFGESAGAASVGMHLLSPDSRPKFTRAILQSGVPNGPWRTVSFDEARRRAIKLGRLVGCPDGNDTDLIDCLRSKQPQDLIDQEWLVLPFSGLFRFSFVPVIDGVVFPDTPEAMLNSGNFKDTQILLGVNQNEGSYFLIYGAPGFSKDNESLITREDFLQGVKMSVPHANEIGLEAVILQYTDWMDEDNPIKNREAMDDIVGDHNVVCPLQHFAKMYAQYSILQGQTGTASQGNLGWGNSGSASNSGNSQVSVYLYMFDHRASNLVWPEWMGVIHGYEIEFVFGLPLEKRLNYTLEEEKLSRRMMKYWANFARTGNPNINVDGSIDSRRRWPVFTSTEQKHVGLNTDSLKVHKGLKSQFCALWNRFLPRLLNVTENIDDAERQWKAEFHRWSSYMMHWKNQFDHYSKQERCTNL

Molecule	MIC (Aspergillus niger)	MIC (Escherichia coli)	MIC [1]	MIC [2]	MIC (Ralstonia solanacearum)	MIC (Aspergillus flavus)	MIC (Cytospora)	MIC (Verticillium dahliae)	MIC (Candida tropicalis)	MIC (Bacillus cereus)	pIC50 (Acetylcholinesterase)	MIC (Cryptococcus neoformans)	MIC (Candida)	MIC (Penicillium citrinum)	MIC (Staphylococcus aureus)	MIC (Curvularia lunata)	MIC (Fusarium oxysporum)	MIC (Pseudomonas aeruginosa)
CCCC(=O)N1CCCC2(O)c3ccccc3N(C)C12 (centres undefined)	inactive	inactive	inactive	inactive	31.2 µg/mL (≈ 114 µM)	inactive	inactive	250 µg/mL (≈ 911 µM)	inactive	inactive	3.92	inactive	inactive	inactive	inactive	inactive	inactive	250 µg/mL (≈ 911 µM)
CCCCC(=O)N1CCC2(Cc3ccccc3C)c3ccccc3N(Cc3ccccc3C)C12 (centres undefined)	250 µg/mL (≈ 552 µM)	250 µg/mL (≈ 552 µM)	inactive	inactive	250 µg/mL (≈ 552 µM)	250 µg/mL (≈ 552 µM)	250 µg/mL (≈ 552 µM)	31.2 µg/mL (≈ 69 µM)	125 µg/mL (≈ 276 µM)	250 µg/mL (≈ 552 µM)	3.48	inactive	250 µg/mL (≈ 552 µM)	250 µg/mL (≈ 552 µM)	250 µg/mL (≈ 552 µM)	inactive	125 µg/mL (≈ 276 µM)	250 µg/mL (≈ 552 µM)
CN1c2ccccc2C2(O)CCCN(C(=O)c3ccccc3F)C12 (centres undefined)	inactive	250 µg/mL (≈ 766 µM)	inactive	inactive	125 µg/mL (≈ 383 µM)	inactive	inactive	125 µg/mL (≈ 383 µM)	inactive	inactive	6.01	inactive	inactive	inactive	inactive	inactive	inactive	250 µg/mL (≈ 766 µM)
Cc1ccc(S(=O)(=O)N2CCC3(Cc4cccc(C)c4)c4ccccc4N(Cc4cccc(C)c4)C23)cc1 (centres undefined)	250 µg/mL (≈ 478 µM)	inactive	250 µg/mL (≈ 478 µM)	125 µg/mL (≈ 239 µM)	inactive	250 µg/mL (≈ 478 µM)	250 µg/mL (≈ 478 µM)	62.5 µg/mL (≈ 120 µM)	inactive	125 µg/mL (≈ 239 µM)	4.89	inactive	250 µg/mL (≈ 478 µM)	inactive	inactive	inactive	250 µg/mL (≈ 478 µM)	inactive
C[C@@H]1[C@H](O)[C@@H](C)/C=C/C=C/C=C/C=C/C=C/C=C/C=C/[C@H](O[C@@H]2O[C@H](C)[C@@H](O)[C@H](N)[C@@H]2O)C[C@@H]2O[C@](O)(C[C@@H](O)C[C@@H](O)[C@H](O)CC[C@@H](O)C[C@@H](O)CC(=O)O[C@H]1C)C[C@H](O)[C@H]2C(=O)O [AMPHOTERICIN B]	–	–	–	–	–	–	–	–	–	–	–	1.96 µg/mL (≈ 2.12 µM)	250 µg/mL (≈ 271 µM)	–	–	–	–	–
CCCCCCC(=O)N1CCC2(Cc3ccccc3C)c3ccccc3N(Cc3ccccc3C)C12 (centres undefined)	250 µg/mL (≈ 520 µM)	250 µg/mL (≈ 520 µM)	250 µg/mL (≈ 520 µM)	250 µg/mL (≈ 520 µM)	125 µg/mL (≈ 260 µM)	250 µg/mL (≈ 520 µM)	62.5 µg/mL (≈ 130 µM)	62.5 µg/mL (≈ 130 µM)	250 µg/mL (≈ 520 µM)	inactive	4.04	inactive	250 µg/mL (≈ 520 µM)	125 µg/mL (≈ 260 µM)	inactive	125 µg/mL (≈ 260 µM)	125 µg/mL (≈ 260 µM)	250 µg/mL (≈ 520 µM)
CCCC(=O)N1CCC2(Cc3cccc(C)c3)c3ccccc3N(Cc3cccc(C)c3)C12 (centres undefined)	125 µg/mL (≈ 285 µM)	250 µg/mL (≈ 570 µM)	250 µg/mL (≈ 570 µM)	inactive	250 µg/mL (≈ 570 µM)	250 µg/mL (≈ 570 µM)	62.5 µg/mL (≈ 142 µM)	62.5 µg/mL (≈ 142 µM)	125 µg/mL (≈ 285 µM)	250 µg/mL (≈ 570 µM)	5.19	inactive	250 µg/mL (≈ 570 µM)	inactive	250 µg/mL (≈ 570 µM)	inactive	125 µg/mL (≈ 285 µM)	250 µg/mL (≈ 570 µM)
CC(=O)N1CCCC2(O)c3ccccc3N(C)C12 (centres undefined)	inactive	inactive	inactive	inactive	250 µg/mL (≈ 1010 µM)	inactive	inactive	inactive	inactive	inactive	5.91	inactive	inactive	inactive	250 µg/mL (≈ 1010 µM)	inactive	inactive	250 µg/mL (≈ 1010 µM)
GENTAMICIN	–	1.96 µg/mL	–	–	62.5 µg/mL	–	–	–	–	–	–	–	–	–	–	–	–	1.96 µg/mL
CCCCCC(=O)N1CCC2(Cc3ccccc3C)c3ccccc3N(Cc3ccccc3C)C12 (centres undefined)	250 µg/mL (≈ 536 µM)	inactive	250 µg/mL (≈ 536 µM)	inactive	250 µg/mL (≈ 536 µM)	250 µg/mL (≈ 536 µM)	125 µg/mL (≈ 268 µM)	62.5 µg/mL (≈ 134 µM)	inactive	inactive	3.66	inactive	125 µg/mL (≈ 268 µM)	250 µg/mL (≈ 536 µM)	inactive	125 µg/mL (≈ 268 µM)	125 µg/mL (≈ 268 µM)	125 µg/mL (≈ 268 µM)
OC(Cn1cncn1)(Cn1cncn1)c1ccc(F)cc1F [FLUCONAZOLE]	–	–	–	–	–	–	–	–	250 µg/mL (≈ 816 µM)	–	–	–	62.5 µg/mL (≈ 204 µM)	–	–	–	–	–
Cc1cccc(CN2c3ccccc3C3(Cc4cccc(C)c4)CCN(C(=O)C(C)C)C23)c1 (centres undefined)	250 µg/mL (≈ 570 µM)	250 µg/mL (≈ 570 µM)	250 µg/mL (≈ 570 µM)	inactive	inactive	250 µg/mL (≈ 570 µM)	250 µg/mL (≈ 570 µM)	250 µg/mL (≈ 570 µM)	250 µg/mL (≈ 570 µM)	15.6 µg/mL (≈ 35.6 µM)	4.87	inactive	250 µg/mL (≈ 570 µM)	inactive	inactive	inactive	125 µg/mL (≈ 285 µM)	inactive
CCCCC(=O)N1CCC2(Cc3cccc(C)c3)c3ccccc3N(Cc3cccc(C)c3)C12 (centres undefined)	250 µg/mL (≈ 552 µM)	250 µg/mL (≈ 552 µM)	inactive	inactive	250 µg/mL (≈ 552 µM)	250 µg/mL (≈ 552 µM)	250 µg/mL (≈ 552 µM)	31.2 µg/mL (≈ 69 µM)	250 µg/mL (≈ 552 µM)	250 µg/mL (≈ 552 µM)	6.88	inactive	250 µg/mL (≈ 552 µM)	250 µg/mL (≈ 552 µM)	250 µg/mL (≈ 552 µM)	inactive	125 µg/mL (≈ 276 µM)	125 µg/mL (≈ 276 µM)
COc1ccc(C(=O)N2CCC3(Cc4cccc(C)c4)c4ccccc4N(Cc4cccc(C)c4)C23)cc1 (centres undefined)	250 µg/mL (≈ 497 µM)	inactive	inactive	inactive	inactive	250 µg/mL (≈ 497 µM)	250 µg/mL (≈ 497 µM)	125 µg/mL (≈ 249 µM)	inactive	inactive	5.55	inactive	inactive	250 µg/mL (≈ 497 µM)	inactive	inactive	250 µg/mL (≈ 497 µM)	inactive
Cc1cccc(CN2c3ccccc3C3(Cc4cccc(C)c4)CCN(C(=O)c4ccccc4)C23)c1 (centres undefined)	250 µg/mL (≈ 529 µM)	inactive	250 µg/mL (≈ 529 µM)	62.5 µg/mL (≈ 132 µM)	inactive	250 µg/mL (≈ 529 µM)	62.5 µg/mL (≈ 132 µM)	31.2 µg/mL (≈ 66.1 µM)	inactive	inactive	4.35	inactive	inactive	250 µg/mL (≈ 529 µM)	inactive	inactive	250 µg/mL (≈ 529 µM)	inactive
COC(=O)Nc1nc2ccccc2[nH]1 [CARBENDAZIM]	inactive	–	125 µg/mL (≈ 654 µM)	62.5 µg/mL (≈ 327 µM)	–	7.81 µg/mL (≈ 40.8 µM)	31.2 µg/mL (≈ 163 µM)	7.81 µg/mL (≈ 40.8 µM)	–	–	–	–	–	1.96 µg/mL (≈ 10.3 µM)	–	250 µg/mL (≈ 1310 µM)	125 µg/mL (≈ 654 µM)	–
Cc1ccccc1CN1c2ccccc2C2(Cc3ccccc3C)CCN(C(=O)C(F)(F)F)C12 (centres undefined)	250 µg/mL (≈ 538 µM)	inactive	250 µg/mL (≈ 538 µM)	inactive	inactive	250 µg/mL (≈ 538 µM)	250 µg/mL (≈ 538 µM)	125 µg/mL (≈ 269 µM)	125 µg/mL (≈ 269 µM)	inactive	5.15	inactive	250 µg/mL (≈ 538 µM)	inactive	inactive	250 µg/mL (≈ 538 µM)	250 µg/mL (≈ 538 µM)	inactive
CC1(C)S[C@@H]2[C@H](NC(=O)Cc3ccccc3)C(=O)N2[C@H]1C(=O)O [PENICILLIN G]	–	–	–	–	–	–	–	–	–	7.81 µg/mL (≈ 23.4 µM)	–	–	–	–	15.6 µg/mL (≈ 46.7 µM)	–	–	–
N#Cc1c(Cl)c(Cl)c(Cl)c(C#N)c1Cl [CHLOROTHALONIL]	15.6 µg/mL (≈ 58.8 µM)	–	250 µg/mL (≈ 940 µM)	250 µg/mL (≈ 940 µM)	–	7.81 µg/mL (≈ 29.4 µM)	62.5 µg/mL (≈ 235 µM)	31.2 µg/mL (≈ 118 µM)	–	–	–	–	–	15.6 µg/mL (≈ 58.8 µM)	–	125 µg/mL (≈ 470 µM)	62.5 µg/mL (≈ 235 µM)	–
CN[C@@H]1[C@H](O[C@H]2[C@H](O[C@H]3[C@H](O)[C@@H](O)[C@H](N=C(N)N)[C@@H](O)[C@@H]3N=C(N)N)O[C@@H](C)[C@]2(O)C=O)O[C@@H](CO)[C@H](O)[C@H]1O [STREPTOMYCIN]	–	31.2 µg/mL (≈ 53.7 µM)	–	–	250 µg/mL (≈ 430 µM)	–	–	–	–	–	–	–	–	–	–	–	–	inactive

— ChEMBL document CHEMBL4304804, “Synthesis and biological evaluation of calycanthaceous alkaloid analogs” (Bioorg Med Chem, 2019)
